Test results as given in patent US20230250096A1, “SUBSTITUTED PHENYL-1H-PYRROLO[2,3-c] PYRIDINE DERIVATIVES” (Janssen Pharmaceutica NV, priority 2021, published 2023).

Experiments:
[1] = target: T1, menin/MLL (terbium chelate-labeled menin, FITC-MBM1 peptide) (Homo sapiens, UniProt O00255, T541A); assay: Menin/MLL homogenous time-resolved fluorescence (HTRF) assay; type: binding; conditions: 30 min incubation
T1 construct: Menin (a.a 1-610-6xhis tag, 2.3 mg/mL in 20 mM Hepes)
T1 sequence (O00255 with tags, fused parts or gaps T541A): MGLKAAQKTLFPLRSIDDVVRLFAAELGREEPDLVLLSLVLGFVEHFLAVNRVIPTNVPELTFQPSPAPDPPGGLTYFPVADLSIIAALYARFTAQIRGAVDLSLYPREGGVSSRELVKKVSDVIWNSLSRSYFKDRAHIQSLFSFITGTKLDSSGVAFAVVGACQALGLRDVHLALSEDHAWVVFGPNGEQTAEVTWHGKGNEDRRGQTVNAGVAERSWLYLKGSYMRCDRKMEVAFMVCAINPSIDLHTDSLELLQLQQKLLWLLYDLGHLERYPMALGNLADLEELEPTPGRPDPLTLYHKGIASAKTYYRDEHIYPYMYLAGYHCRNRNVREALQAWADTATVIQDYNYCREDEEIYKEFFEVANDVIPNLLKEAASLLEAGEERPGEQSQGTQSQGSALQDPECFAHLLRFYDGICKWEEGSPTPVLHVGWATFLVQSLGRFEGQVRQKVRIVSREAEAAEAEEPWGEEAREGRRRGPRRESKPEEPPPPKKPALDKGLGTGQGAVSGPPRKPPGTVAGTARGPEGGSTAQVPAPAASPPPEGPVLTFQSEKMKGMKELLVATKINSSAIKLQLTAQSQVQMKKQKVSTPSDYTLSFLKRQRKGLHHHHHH
How it was run: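 Competition binding read by time-resolved FRET (FITC 520 nm over terbium 490 nm) after compound meets labeled menin 1-610-His […] for 30 min, then FITC-MBM1 (75 nM) for 15 min, ambient temperature, 0.5% DMSO. Eleven-point four-fold dilutions, usually starting at 10 μM, fitted to four-parameter curves for IC50.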

[2] = test system: MEIS1 mRNA expression; assay: MEIS1 mRNA expression assay (Quantigene Singleplex) in MOLM14 cells; type: cell-based, human; conditions: 48 hours incubation
How it was run: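 Read-out: MEIS1 transcript counts, background-subtracted and divided by RPL28, expressed as fold change over DMSO-treated cells, then dose-response modelled for IC50. MOLM14 cells (3,750/well) received graded compound for 48 h before lysis and QuantiGene hybridization at 55 °C.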

| Compound | IC50 [1] [nM] | IC50 ([2]; Homo sapiens, MOLM-14, 48 h) [nM] | IC50 [2] [nM] |
| --- | --- | --- | --- |
| CC(=O)N1CCN(CCCC(C(C)C)N2CC[C@@H](Cc3cn(-c4ccc(F)cc4C(=O)N(C)C(C)C)c4cncc(C)c34)C2)CC1 (mixture of isomers) [Compound 8] | 0.365 | 23 | – |
| Cc1cncc2c1c(CC1CCN(CC3CCN(C(=O)[C@H](C)O)CC3)C1)cn2-c1ccc(F)cc1C(=O)N(C)C(C)C (single isomer, unassigned) [Compound 86] | 0.042 | 21 | – |
| Cc1cncc2c1c(CC1CN(C[C@@H]3CCOC3)C1)cn2-c1ccc(F)cc1C(=O)N(C)C(C)C (single isomer, unassigned) [Compound 191b] | 0.071 | 41 | – |
| Cc1cncc2c1c(CC1CN(CC3CCNC(=O)CC3)C1)cn2-c1ccc(F)cc1C(=O)N(C)C(C)C (stereo not drawn) [Compound 104] | 0.147 | 254 | – |
| CN=S(=O)(c1cc(F)ccc1-n1cc(CC2CCN(CC3CCOCC3)C2)c2c(C)cncc21)C(C)C (stereo not drawn) [Compound 77] | 0.191 | 136 | – |
| COCCN(C)CCC[C@@H](C(C)C)N1CC[C@H](Cc2cn(-c3ccc(F)cc3C(=O)N(C)C(C)C)c3cncc(Cl)c23)C1 (single isomer, unassigned) [Compound 4b] | 0.094 | 6 | – |
| CN=S(=O)(c1cc(F)ccc1-n1cc(CC2CCN(CC3CCN(C(C)=O)CC3)C2)c2c(C)cncc21)C(C)C (stereo not drawn) [Compound 128] | 0.078 | 238 | – |
| CC(=O)N1CCC(N2CC[C@H](Cc3cn(-c4ccc(F)cc4C(=O)N(C)C(C)C)c4cncc(C)c34)C2)CC1 (single isomer, unassigned) [Compound 81] | 0.425 | – | 77 |
| CNC(=O)[C@H]1CC[C@H](CN2CC([C@H](C)c3cn(-c4ccc(F)cc4C(=O)N(C)C(C)C)c4cncc(C)c34)C2)CC1 (single isomer, unassigned) [Compound 164b] | 0.025 | 17 | – |
| CC(=O)N1CCN(CCCC(C(C)C)N2CCC(Cc3cn(-c4ccc(F)cc4C(=O)N(C)C(C)C)c4cncc(C)c34)C2)CC1 (single isomer, unassigned) [Compound 9a] | 0.016 | 6 | – |
| CC(=O)N1CCC(CCN2CC[C@@H](Cc3cn(-c4ccc(F)cc4C(=O)N(C)C(C)C)c4cncc(C)c34)C2)CC1 [Compound 189] | 0.544 | 314 | – |
| CN=S(=O)(c1cc(F)ccc1-n1cc(CC2CCN(CC3CCOCC3)C2)c2c(C)cncc21)C(C)C (single isomer, unassigned) [Compound 77d] | 0.208 | – | ~260 |
| CN=[S@](=O)(c1cc(F)ccc1-n1cc(C[C@@H]2CCN(CC3CCN(C(C)=O)CC3)C2)c2c(C)cncc21)C(C)C (single isomer, unassigned) [Compound 128a] | 0.151 | 258 | – |
| CC(=O)N1CCC(CN2CC[C@@H](Cc3cn(-c4ccc(F)cc4C(=O)N4CCC5CC54)c4cncc(C)c34)C2)CC1 (single isomer, unassigned) [Compound 311b] | 0.077 | – | 26 |
| Cc1cncc2c1c(CC1CN(C[C@H]3CCOC3)C1)cn2-c1ccc(F)cc1C(=O)N(C)C(C)C (single isomer, unassigned) [Compound 191a] | 0.056 | 39 | – |
| Cc1cncc2c1c(CC1CN(CC3CCOCC3)C1)cn2-c1ccc(F)cc1C(=O)N1CCC[C@H]1C [Compound 279] | 0.025 | 17 | – |
| Cc1cncc2c1c(CC1CN(CC3CCOCC3)C1)cn2-c1ccc(F)cc1C(=O)N(CCO)C(C)C [Compound 281] | 0.058 | 13 | – |
| Cc1cncc2c1c(C[C@@H]1CCN(CC3CCC(O)CC3)C1)cn2-c1ccc(F)cc1C(=O)N(C)C(C)C (single isomer, unassigned) [Compound 205a] | 0.049 | 21 | – |
| COCC(=O)N1CCC(CN2CC[C@@H](Cc3cn(-c4ccc(F)cc4C(=O)N(C)C(C)C)c4cncc(C)c34)C2)CC1 (single isomer, unassigned) [Compound 136] | ~0.094 | 71 | – |
| Cc1cncc2c1c(CC1CN(CC3CCC(O)CC3)C1)cn2-c1ccc(F)cc1C(=O)N(C)C(C)C (stereo not drawn) [Compound 144] | 0.072 | 11 | – |
| COCCN(C)CCC[C@H](C(C)C)N1CC[C@H](Cc2cn(-c3ccc(F)cc3C(=O)N(C)C(C)C)c3cncc(Cl)c23)C1 (single isomer, unassigned) [Compound 4a] | 0.301 | 247 | – |
